Data taken from article PMC6792352, “Limited Chemical Structural Diversity Found to Modulate Thyroid Hormone Receptor in the Tox21 Chemical Library” (Environmental Health Perspectives, 2019).
Where a name gives a salt, the structure may show the parent alone.

Assay: in vitro
Details: rat, gh3-tre-luc cells, AC50 (uM) modified / 1000

SMILES	CC50 at 24 h [µM]
BrCC(Br)C1CCC(Br)C(Br)C1 (stereo not drawn) [1,2-Dibromo-4-(1,2-dibromoethyl)cyclohexane]	55.8
CC[C@H](C)[C@@H]1NC(=O)[C@H](Cc2ccc(O)cc2)NC(=O)[C@@H](N)CSSC[C@@H](C(=O)N2CCC[C@H]2C(=O)N[C@@H](CC(C)C)C(=O)NCC(N)=O)NC(=O)[C@H](CC(N)=O)NC(=O)[C@H](CCC(N)=O)NC1=O [Oxytocin acetate]	> 50
CCOC(=O)COc1ccc2c(C)c(CCN(CC)CC)c(=O)oc2c1 [Chromonar hydrochloride]	> 50
NCCCN(CCO)CCO [2,2'-[(3-Aminopropyl)imino]diethanol]	> 90
CN(C)CCCN [3-(Dimethylamino)propylamine]	> 90
c1ccc2c(c1)Oc1ccccc1S2 [Phenoxathiin]	> 90
CCCC[N+]1(C)CCCC1 [1-Butyl-1-methylpyrrolidinium hexafluorophosphate]	> 90
CC(C)OC(=O)c1cc2c(OCC(O)CNC(C)(C)C)cccc2[nH]1 (stereo not drawn) [SDZ 21009]	36.9
CCC(C)(C)C1CCCCC1OC(C)=O (stereo not drawn) [2-(2-Methylbutan-2-yl)cyclohexyl acetate]	> 90
COC(=O)c1ccccc1O [Methyl salicylate]	> 90
COCC1=C(C(=O)OC(C)OC(=O)OC(C)C)N2C(=O)[C@@H](NC(=O)/C(=N\OC)c3csc(N)n3)[C@H]2SC1 (stereo partly drawn) [Cefpodoxime proxetil]	> 50
C=C(C)C(=O)OCC [Ethyl methacrylate]	> 100
ClCc1ccccn1 [2-(Chloromethyl)pyridine hydrochloride]	> 90
CC1CN1 (stereo not drawn) [Propyleneimine]	> 90
CC(C)(C)c1cc(CCC(=O)OCC(COC(=O)CCc2cc(C(C)(C)C)c(O)c(C(C)(C)C)c2)(COC(=O)CCc2cc(C(C)(C)C)c(O)c(C(C)(C)C)c2)COC(=O)CCc2cc(C(C)(C)C)c(O)c(C(C)(C)C)c2)cc(C(C)(C)C)c1O [Irganox 1010]	> 40
NCCNCCNCCNCCN [Tetraethylenepentamine]	> 90
O=S(=O)(O)c1cc(Cl)c(Cl)cc1Cl [2,4,5-Trichlorobenzenesulfonic acid]	> 90
CCN(CC)/[N+]([O-])=N/O [1,1-Diethyl-2-hydroxy-2-nitrosohydrazine diethylamine]	> 50
Cc1ccsc1C(=CCCN1CCC[C@@H](C(=O)O)C1)c1sccc1C [Tiagabine hydrochloride]	> 50
CC(C)(C)c1ccc(C=O)cc1 [4-tert-Butylbenzaldehyde]	> 90
O=C1NCCN1c1ncc([N+](=O)[O-])s1 [Niridazole]	> 20
O=C(OCCCCCCOC(=O)c1ccccc1)c1ccccc1 [Hexane-1,6-diyl dibenzoate]	> 90
N[C@@H](Cc1cc(I)c(Oc2ccc(O)c(I)c2)c(I)c1)C(=O)O [3,5,3ʹ-Triiodothyronine]	> 70
Cc1nc2c([nH]1)c(=O)n(C)c(=O)n2Cc1ccco1 [Furafylline]	> 50
OCCSc1ccccc1 [2-Phenylmercaptoethanol]	> 90
Cc1nn(C)c(Oc2ccccc2)c1C=NOCc1ccc(C(=O)OC(C)(C)C)cc1 [Fenpyroximate (Z,E)]	59.7

SMILES	CC50 at 24 h [µM]
O=C(O)c1cccc(C(=O)O)c1 [1,3-Benzenedicarboxylic acid]	> 90
CC(C)(c1cc(Br)c(OCC(Br)CBr)c(Br)c1)c1cc(Br)c(OCC(Br)CBr)c(Br)c1 (stereo not drawn) [Tetrabromobisphenol A-bis(2,3-dibromopropyl ether)]	> 50
O=C(c1ccccc1)c1ccc(O)cc1O [2,4-Dihydroxybenzophenone]	> 90
CCCCOc1ccc(OCCCN2CCOCC2)cc1 [Pramoxine hydrochloride]	> 20
CCC(C)(Oc1ccc(C2(c3ccc(OC(C)(CC)C(=O)O)cc3)CCCCC2)cc1)C(=O)O (stereo not drawn) [Clinofibrate]	> 50
ClC(Cl)(Cl)c1ccc(C(Cl)(Cl)Cl)cc1 [1,4-Bis(trichloromethyl)benzene]	> 90
CCCCCCCCCCCCCCCCCC[n+]1ccn(C)c1 [1-Methyl-3-octadecylimidazolium hexafluorophosphate]	9.82
CCCCCCCCC(=O)O [Nonanoic acid]	> 90
Oc1cccc(O)c1 [Resorcinol]	> 90
CC(C)CCCCCCc1ccc(OCCOCCO)cc1 [Igepal CO-890]	> 100
CC1(C)O[C@@H]2C[C@H]3[C@@H]4C[C@H](F)C5=CC(=O)C=C[C@]5(C)[C@@]4(F)[C@@H](O)C[C@]3(C)[C@]2(C(=O)CO)O1 [Fluocinolone acetonide]	> 50
C[C@]12C=CC(=O)C=C1CC[C@H]1[C@@H]3C[C@@H](O)[C@](O)(C(=O)CO)[C@@]3(C)C[C@H](O)[C@@]12F [Triamcinolone]	> 90
CC(C)(C)C(=O)OCOC(=O)[C@@H]1N2C(=O)[C@@H](NC(=O)[C@H](N)c3ccccc3)[C@H]2SC1(C)C [Pivampicillin]	> 20
O=C(O)CCC(=O)OC[C@@H](NC(=O)C(Cl)Cl)[C@H](O)c1ccc([N+](=O)[O-])cc1 [Chloramphenicol sodium succinate]	> 50
CCCN(CCC)C(=O)CN [C.I. Solvent Black 5]	3.55
CC(=O)OCC1=C(C(=O)O)N2C(=O)[C@@H](NC(=O)Cc3ccccc3)[C@H]2SC1 [Cefaloram]	> 50
CC(C)[C@H]1CC[C@H](C(=O)N[C@H](Cc2ccccc2)C(=O)O)CC1 [Nateglinide]	> 50
Oc1ccc(Cl)c2c1CCC2 [Chlorindanol]	> 50
Clc1cc(Cl)c(Cl)c(Cl)c1 [1,2,3,5-Tetrachlorobenzene]	> 90
C1C2OC2C2C1C1CC2C2OC12 (stereo not drawn) [Dicyclopentadiene dioxide]	> 90
C1CSCCS1 [1,4-Dithiane]	> 90
c1ccc2sc(SNC3CCCCC3)nc2c1 [N-Cyclohexyl-2-benzothiazolesulfenamide]	> 90
CCOc1ccccc1O [2-Ethoxyphenol]	> 90
Nc1nc(/C(=C/CC(=O)O)C(=O)N[C@@H]2C(=O)N3C(C(=O)O)=CCS[C@H]23)cs1 [Ceftibuten]	> 50
COC(=O)C(C)Oc1ccc(Oc2ccc(Cl)cc2Cl)cc1 (stereo not drawn) [Diclofop-methyl]	> 90
CC(=O)/C=C/[C@H]1C(C)=CC[C@@H](C)C1(C)C [alpha-Irone]	> 90

SMILES	CC50 at 24 h [µM]
N#CC(C#N)=Cc1ccc(O)c(O)c1 [Tyrphostin 23]	16.8
CC(C)(Cl)Cl [2,2-Dichloropropane]	> 90
CCCC(=O)OC [Methyl butyrate]	> 90
CCCCOC(=O)C(=O)OCCCC [Dibutyl ethanedioate]	> 90
CN[C@@H]1[C@@H](O)[C@@H](O[C@@H]2[C@H](O)[C@H](O[C@H]3OC(CN)=CC[C@H]3N)[C@@H](N)C[C@H]2N)OC[C@]1(C)O [Pentisomicin]	> 50
CC(C)(CC(=O)O)C(=O)O [2,2-Dimethylbutanedioic acid]	> 90
CCc1cccc(CC)c1N [2,6-Diethylaniline]	> 90
CC1CNc2c(cccc2S(=O)(=O)N[C@@H](CCCNC(=N)N)C(=O)N2CC[C@@H](C)C[C@@H]2C(=O)O)C1 (stereo partly drawn) [Argatroban]	> 50
CCO[Si](CCCN=C=O)(OCC)OCC [(3-Isocyanatopropyl)triethoxysilane]	> 90
Oc1ccc(C(O)CNCCCCCCNCC(O)c2ccc(O)c(O)c2)cc1O (stereo not drawn) [Hexoprenaline sulfate]	20.9
CCCCCCCCCCO[C@@H]1O[C@H](CO)[C@@H](O)[C@H](O)[C@H]1O [Decyl beta-D-glucopyranoside]	> 90
CN[C@@H](C)[C@H](O)c1ccccc1 [Ephedrine hydrochloride]	> 50
COC(=O)[C@H]1CC[C@H](C(=O)OC)CC1 [Dimethyl trans-cyclohexane-1,4-dicarboxylate]	> 90
CCCCCCCCC(=O)Cl [Nonanoyl chloride]	> 90
CC[N+](CC)(CC)CCOc1ccc(/C=C/c2ccccc2)cc1 [Stilonium iodide]	> 50
Cc1ccc(C(=O)c2ccccc2)cc1 [4-Methylbenzophenone]	> 90
CNc1ccc([N+](=O)[O-])cc1 [N-Methyl-4-nitroaniline]	54.8
CCOc1cc(OCC)c(C(=O)CCC(=O)O)cc1OCC [Trepibutone]	> 50
O=C1[C@H](CC[C@H](O)c2ccc(F)cc2)[C@@H](c2ccc(O)cc2)N1c1ccc(F)cc1 [Ezetimibe]	> 50
O=C(Nc1ccc(F)cc1F)c1cccnc1Oc1cccc(C(F)(F)F)c1 [Diflufenican]	> 100
Nc1cc(Cl)ccc1O [2-Amino-4-chlorophenol]	30.7
O=C(O)[C@@H]1CSCN1 [L-Thioproline]	> 50
O=Cc1cc2ccccc2o1 [2-Benzofurancarboxaldehyde]	> 90
OCCN1CCN(CCCN2c3ccccc3Sc3ccc(C(F)(F)F)cc32)CC1 [Fluphenazine]	5.76

Same assay, conditions: rat, gh3-tre-luc cells, AC50 (uM) modified / 1000, Tox21_110001=Tox21_111475; viability, 1 nM T3 present, 24 h

SMILES	CC50 at 24 h [µM]
CC(C)C[C@H](CN)CC(=O)O [Pregabalin]	> 50

Same assay, conditions: rat, gh3-tre-luc cells, AC50 (uM) modified / 1000, Tox21_110001=Tox21_112818; viability, 1 nM T3 present, 24 h

SMILES	CC50 at 24 h [µM]
C[C@H]1N=C(N)O[C@H]1c1ccccc1 (stereo in doubt) [(4R,5S)-4-methyl-5-phenyl-4,5-dihydro-1,3-oxazol-2-amine]	> 90

Same assay, conditions: rat, gh3-tre-luc cells, AC50 (uM) modified / 1000, Tox21_110001=Tox21_200042; viability, 1 nM T3 present, 24 h

SMILES	CC50 at 24 h [µM]
C=C(Cl)CSC(=S)N(CC)CC [Sulfallate]	> 100

Same assay, conditions: rat, gh3-tre-luc cells, AC50 (uM) modified / 1000, Tox21_110001=Tox21_202319; viability, 1 nM T3 present, 24 h

SMILES	CC50 at 24 h [µM]
N#CC(Br)Br [Dibromoacetonitrile]	> 90

Same assay, conditions: rat, gh3-tre-luc cells, AC50 (uM) modified / 1000, Tox21_110001=Tox21_202941; viability, 1 nM T3 present, 24 h

SMILES	CC50 at 24 h [µM]
O=C(CBr)c1ccccc1 [2-Bromoacetophenone]	> 90
